In patent publication US20180170941A1 (priority 2016, published 2018):

target: T1, GABAA α5 receptor (Rattus norvegicus, UniProt P18508+P19969); experiment: GABAA α5 receptor occupancy with Ro 15-4513 tracer, hippocampus vs cerebellum; assay type: in vivo, Long Evans rats; conditions: 0.01-10 mg/kg, i.v.
T1 construct: from tissue
Experimental: Food and water were available ad libitum.
The (100 μl) supernatant solution was diluted by […] of sterile water (pH 6.5).

T1 sequence (P19969 32-464 limits assumed): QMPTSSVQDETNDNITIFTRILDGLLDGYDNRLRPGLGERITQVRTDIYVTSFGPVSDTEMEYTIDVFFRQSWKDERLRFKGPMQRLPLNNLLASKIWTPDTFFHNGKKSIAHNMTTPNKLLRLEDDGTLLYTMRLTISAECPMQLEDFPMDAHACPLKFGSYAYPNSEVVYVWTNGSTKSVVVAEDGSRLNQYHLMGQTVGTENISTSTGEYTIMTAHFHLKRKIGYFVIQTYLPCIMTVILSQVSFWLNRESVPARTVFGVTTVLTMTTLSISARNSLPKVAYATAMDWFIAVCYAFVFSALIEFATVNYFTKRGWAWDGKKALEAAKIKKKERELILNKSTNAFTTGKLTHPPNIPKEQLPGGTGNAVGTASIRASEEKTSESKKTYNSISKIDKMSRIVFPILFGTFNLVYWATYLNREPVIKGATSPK
T1 sequence (P18508 39-466): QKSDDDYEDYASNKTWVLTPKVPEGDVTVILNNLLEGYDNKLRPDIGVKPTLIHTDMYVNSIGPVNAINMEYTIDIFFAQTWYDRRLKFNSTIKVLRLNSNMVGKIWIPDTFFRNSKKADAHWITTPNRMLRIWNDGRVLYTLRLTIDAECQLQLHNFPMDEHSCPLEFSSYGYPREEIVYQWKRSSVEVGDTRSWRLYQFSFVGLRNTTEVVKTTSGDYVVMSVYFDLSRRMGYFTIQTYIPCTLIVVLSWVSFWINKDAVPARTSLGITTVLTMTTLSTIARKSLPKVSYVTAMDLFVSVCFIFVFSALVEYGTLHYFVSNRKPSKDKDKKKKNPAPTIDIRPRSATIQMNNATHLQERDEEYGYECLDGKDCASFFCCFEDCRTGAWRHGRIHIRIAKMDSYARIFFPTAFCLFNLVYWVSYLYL

SMILES | Ro 15-4513 binding in hippocampus | cerebellum levels (binding) of Ro 15-4513
CCOC(=O)c1ncn2c1Cn1c(C)nnc1-c1cc(OC)ccc1-2 [Ethyl 3-methoxy-7-methyl-9H-benzo[f]imidazo[1,5-a][1,2,4]tri] | blocked | did not affect

same assay, conditions: tracer 1 μg/kg, i.v., after vehicle

SMILES | Ro 15-4513 level in hippocampus compared with cerebellum [fold]
CCOC(=O)c1ncn2c1CN(C)C(=O)c1cc(N=[N+]=[N-])ccc1-2 [Ro 15-4513] | > 5

target: T2, α5β3γ2 GABAA receptors (Ltk cell membranes) (Homo sapiens, UniProt P18507+P31644); experiment: Binding activity of test compounds on GABAAR: inhibition of [3H]Ro15-1788 binding; conditions: GABA α5 Binding Ki Values, inhibition of [3H]Ro15-1788 binding; reported as ranges
T2 construct: membranes
T2 sequence (P31644 32-462): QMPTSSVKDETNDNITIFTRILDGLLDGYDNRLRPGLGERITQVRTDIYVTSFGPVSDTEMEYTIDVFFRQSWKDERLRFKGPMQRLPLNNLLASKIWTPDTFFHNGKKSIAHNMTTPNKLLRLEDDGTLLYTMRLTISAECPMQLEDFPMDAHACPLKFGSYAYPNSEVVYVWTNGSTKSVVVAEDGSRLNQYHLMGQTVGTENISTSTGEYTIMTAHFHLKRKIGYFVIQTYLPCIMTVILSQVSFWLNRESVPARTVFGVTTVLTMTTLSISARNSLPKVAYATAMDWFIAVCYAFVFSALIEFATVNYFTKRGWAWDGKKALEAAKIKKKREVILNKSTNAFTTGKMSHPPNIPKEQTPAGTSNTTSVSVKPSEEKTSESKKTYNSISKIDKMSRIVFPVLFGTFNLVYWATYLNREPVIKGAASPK
T2 sequence (P28472 26-473 partner): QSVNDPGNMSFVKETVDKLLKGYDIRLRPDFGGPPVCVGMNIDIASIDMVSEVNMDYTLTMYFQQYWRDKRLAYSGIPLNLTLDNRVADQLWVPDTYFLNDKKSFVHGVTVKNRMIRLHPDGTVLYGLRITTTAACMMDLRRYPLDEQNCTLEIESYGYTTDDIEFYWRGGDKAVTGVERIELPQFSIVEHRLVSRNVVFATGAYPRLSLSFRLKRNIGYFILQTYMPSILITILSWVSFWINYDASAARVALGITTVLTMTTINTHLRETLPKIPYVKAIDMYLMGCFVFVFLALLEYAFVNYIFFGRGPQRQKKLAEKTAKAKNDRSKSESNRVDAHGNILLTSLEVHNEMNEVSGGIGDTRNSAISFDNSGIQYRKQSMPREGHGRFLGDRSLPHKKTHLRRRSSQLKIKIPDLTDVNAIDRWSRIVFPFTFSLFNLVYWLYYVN
T2 sequence (P18507 40-475): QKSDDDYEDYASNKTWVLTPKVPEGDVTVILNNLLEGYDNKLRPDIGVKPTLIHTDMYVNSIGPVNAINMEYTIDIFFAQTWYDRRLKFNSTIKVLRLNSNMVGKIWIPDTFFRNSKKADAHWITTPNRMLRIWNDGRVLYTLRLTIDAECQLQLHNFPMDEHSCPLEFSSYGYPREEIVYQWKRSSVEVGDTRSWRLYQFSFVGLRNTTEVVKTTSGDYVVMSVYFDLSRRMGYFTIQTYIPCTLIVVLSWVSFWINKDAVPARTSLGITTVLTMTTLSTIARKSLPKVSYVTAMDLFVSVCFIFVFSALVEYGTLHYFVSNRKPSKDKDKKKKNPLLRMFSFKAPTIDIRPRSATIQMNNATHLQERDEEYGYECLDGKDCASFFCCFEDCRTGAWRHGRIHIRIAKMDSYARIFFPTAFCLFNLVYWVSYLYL
Method in brief: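 Membranes from dexamethasone-induced Ltk cells (α5 line: 0.5 μM, 1 day); binding with [3H]Ro15-1788 for 1 h at 4 °C in 50 mM KH2PO4, 1 mM EDTA, 0.2 M KCl, pH 7.4, 0.2 mg/ml α5 protein. Nonspecific binding defined by 10 μM diazepam; filtration, scintillation counting, triplicates.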

SMILES | Ki [nM]
CC(C)c1coc(-c2ncn3c2Cc2cnnn2-c2cc(Cl)ccc2-3)n1 [Compound 387] | < 100
COc1ccc2c(c1)-n1nncc1Cc1c(-c3nc(C)no3)ncn1-2 [Compound 258] | < 100
N#Cc1ncn2c1Cc1c(COc3ccccc3)nnn1-c1cc(Cl)ccc1-2 [Compound 226] | < 100
COc1ccc2c(c1)-n1nncc1Cc1c(C3=N[C@@H](c4ccccc4)CO3)ncn1-2 [Compound 289] | < 100
COCc1nnc2n1Cc1c(C3=N[C@@H](c4ccc(F)cc4)CO3)ncn1-c1ccc(Cl)cc1-2 [Compound 320] | < 100
COCc1nnc2n1Cc1c(-c3nc(C(C)C)no3)ncn1-c1ccc(OC)cc1-2 [Compound 130] | < 100
CCOCc1nnc2n1Cc1c(-c3noc(C(C)C)n3)ncn1-c1ccc(OC)cc1-2 [Compound 173] | < 100
CCOCc1nnc2n1Cc1c(C3=N[C@@H](c4ccc(F)cc4)CO3)ncn1-c1ccc(Cl)cc1-2 [Compound 325] | < 100
COCc1nnc2n1Cc1c(C3=N[C@H](c4ccccc4)CO3)ncn1-c1ccc(OC)cc1-2 [Compound 340] | < 100
COCc1nnc2n1Cc1c(C3=N[C@@H](c4ccc(OC)cc4)CO3)ncn1-c1ccc(Cl)cc1-2 [Compound 332] | < 100
CCc1nc(-c2ncn3c2Cn2c(COc4ccccc4)nnc2-c2cc(F)ccc2-3)no1 [Compound 158] | < 100
C#Cc1ccc2c(c1)-c1nnc(COC)n1Cc1c(C3=N[C@@H](C(C)C)CO3)ncn1-2 [Compound 384] | 100 to 1000
C#Cc1ncn2c1Cn1c(COc3cccnc3)nnc1-c1cc(OC)ccc1-2 [Compound 241] | < 100
COCc1nnc2n1Cc1c(-c3cc(C)no3)ncn1-c1ccc(Cl)cc1-2 [Compound 233] | < 100
Cc1nnn2c1Cc1c(C3=N[C@@H](c4ccccc4F)CO3)ncn1-c1ccc(Cl)cc1-2 [Compound 378] | 100 to 1000
COc1ccc2c(c1)-n1nncc1Cc1c(C#Cc3ccc(C(F)(F)F)cc3)ncn1-2 [Compound 406] | < 100
CC#Cc1ncn2c1Cn1c(COCc3ccccc3)nnc1-c1cc(Cl)ccc1-2 [Compound 352] | 100 to 1000
COCc1nnc2n1Cc1c(C3=NCCO3)ncn1-c1ccc(C(F)(F)F)cc1-2 [Compound 470] | 100 to 1000
COCc1nnc2n1Cc1c(-c3ncco3)ncn1-c1ccc(C(F)(F)F)cc1-2 [Compound 471] | < 100
CCOC(=O)c1ncn2c1Cc1c(C)cnn1-c1cc(OC)ccc1-2 [Compound 7] | < 100

SMILES | Ki [nM]
COCc1nnc2n1Cc1c(C3=N[C@@H](Cc4ccccc4)CO3)ncn1-c1ccc(Cl)cc1-2 [Compound 265] | 100 to 1000
CCOC(=O)c1ncn2c1Cc1c(C)nnn1-c1cc(F)ccc1-2 [Compound 2] | < 100
C#Cc1ncn2c1C(Cc1ccccc1F)c1cnnn1-c1cc(OC)ccc1-2 (stereo not shown) [Compound 451] | < 100
COCc1nnc2n1Cc1c(C#CCc3ccccc3)ncn1-c1ccc(Cl)cc1-2 [Compound 346] | < 100
CCOC(=O)c1ncn2c1Cc1c(CN(CC)CC)nnn1-c1cc(OC)ccc1-2 [Compound 50] | 100 to 1000
COc1ccc2c(c1)-n1nnc(C)c1Cc1c(-c3nc(C)no3)ncn1-2 [Compound 167] | < 100
CCc1nc(-c2ncn3c2Cc2c(Cc4ccccc4)nnn2-c2cc(OC)ccc2-3)no1 [Compound 194] | < 100
COc1ccc2c(c1)-n1nncc1Cc1c(C3=N[C@@H](c4ccccc4C)CO3)ncn1-2 [Compound 373] | < 100
CCOC(=O)c1ncn2c1Cc1c(Cc3ccccc3)cnn1-c1cc(OC)ccc1-2 [Compound 8] | < 100
COc1ccc2c(c1)-n1nncc1Cc1c(C#Cc3cccnc3)ncn1-2 [Compound 407] | < 100
COc1ccc2c(c1)-c1nnc(COc3ccccc3)n1Cc1c(-c3noc(C)n3)ncn1-2 [Compound 162] | < 100
COc1ccc2c(c1)-c1nnc(COc3ccccc3)n1Cc1c(C(=O)OC(C)C)ncn1-2 [Compound 120] | < 100
COc1ccc2c(c1)-n1nncc1Cc1c(C#Cc3ccccn3)ncn1-2 [Compound 408] | < 100
COCc1nnc2n1Cc1c(C3=N[C@@H](C(C)C)CO3)ncn1-c1ccc(Cl)cc1-2 [Compound 240] | 100 to 1000
C#Cc1ncn2c1Cn1c(COc3ccccc3)nnc1-c1cc(OC)ccc1-2 [Compound 236] | < 100
CCOC(=O)c1ncn2c1Cn1c(COc3ccccc3)nnc1-c1cc(OC)ccc1-2 [Compound 55] | < 100
COCc1nnc2n1Cc1c(-c3nc(C)no3)ncn1-c1ccc(OC(F)(F)F)cc1-2 [Compound 456] | < 100
COc1ccc2c(c1)-n1nncc1Cc1c(C#Cc3ccccc3)ncn1-2 [Compound 404] | < 100
COCc1nnc2n1Cc1c(-c3nc(-c4ccccc4F)co3)ncn1-c1ccc(Cl)cc1-2 [Compound 323] | < 100
CCOC(=O)c1ncn2c1Cn1c(COCC(F)(F)F)nnc1-c1cc(Cl)ccc1-2 [Compound 308] | < 100

SMILES | Ki [nM]
COCc1nnc2n1Cc1c(C#CCc3cccc(Cl)c3)ncn1-c1ccc(Cl)cc1-2 [Compound 422] | < 100
COc1ccc2c(c1)-c1nnc(COc3ccccc3)n1Cc1c(C#N)ncn1-2 [Compound 122] | < 100
CCOC(=O)c1ncn2c1Cn1c(COc3ccccc3)nnc1-c1cc(F)ccc1-2 [Compound 137] | < 100
COc1ccc2c(c1)-n1nncc1Cc1c(C3=NCCO3)ncn1-2 [Compound 383] | < 100
COCc1nnc2n1Cc1c(COc3ccccn3)ncn1-c1ccc(Cl)cc1-2 [Compound 274] | 100 to 1000
Cc1nnn2c1Cc1c(C3=N[C@@H](c4ccccc4)CO3)ncn1-c1ccc(Cl)cc1-2 [Compound 376] | 100 to 1000
CCOC(=O)c1ncn2c1Cc1c(CN(C)Cc3ccccc3)nnn1-c1cc(OC)ccc1-2 [Compound 51] | < 100
COCc1nnc2n1Cc1c(-c3noc(C)n3)ncn1-c1ccc(OC)cc1-2 [Compound 164] | < 100
COCc1nnc2n1Cc1c(C3=N[C@@H](c4ccccc4)CO3)ncn1-c1ccc(OC)cc1-2 [Compound 343] | < 100
COc1ccc2c(c1)-n1nnc(-c3ccccc3)c1Cc1c(-c3nc(C)no3)ncn1-2 [Compound 273] | 100 to 1000
CCOCc1nnc2n1Cc1c(C3=N[C@@H](c4ccccc4F)CO3)ncn1-c1ccc(Cl)cc1-2 [Compound 322] | < 100
CC#Cc1ncn2c1Cc1cnnn1-c1cc(Cl)ccc1-2 [Compound 416] | < 100
COCc1nnc2n1Cc1c(-c3cnco3)ncn1-c1ccc(Cl)cc1-2 [Compound 314] | 100 to 1000
COc1ccc2c(c1)-c1nnc(COCc3ccccc3F)n1Cc1c(-c3noc(C(C)C)n3)ncn1-2 [Compound 184] | < 100
CCOC(=O)c1ncn2c1Cc1c(COc3ccccc3)nnn1-c1cc(OC)ccc1-2 [Compound 9] | < 100
Cc1nnn2c1Cc1c(-c3noc(C(C)C)n3)ncn1-c1ccc(F)cc1-2 [Compound 149] | < 100
COc1ccc2c(c1)-c1nnc(COCc3ccccc3)n1Cc1c(C#N)ncn1-2 [Compound 166] | < 100
COCc1nnc2n1Cc1c(C3=N[C@@H](c4ccccc4C)CO3)ncn1-c1ccc(Cl)cc1-2 [Compound 330] | < 100
COc1ccc2c(c1)-c1nnc(COc3ccc(F)cc3)n1Cc1c(-c3noc(C)n3)ncn1-2 [Compound 163] | < 100

same assay, conditions: inhibition of [3H]Ro15-1788 binding; reported as ranges

SMILES | Ki [nM]
COCc1nnc2n1Cc1c(COCc3ccccc3)ncn1-c1ccc(Cl)cc1-2 [Compound 430] | > 1000
COCc1nnc2n1Cc1c(COc3ccccc3F)ncn1-c1ccc(Cl)cc1-2 [Compound 433] | > 1000
